Source: patent publication US5661182A, “Method for lowering oxygen affinity of hemoglobin in redcell suspensions, in whole blood and in vivo” (Virginia Commonwealth University, priority 1995, dated 1997)
Entries after “also recorded” stand apart in the source; their conditions may differ.

Experiments:
[1] = tested on: purified Hb Yakima; assay: Effect on purified Hb Yakima; format: biochemical, human
[2] = tested on: hemoglobin; assay: Comparison of allosteric effector strength (right shift of oxygen equilibrium curve); format: biochemical; details: compounds of FIG. 1
[3] = target: hemoglobin in fresh human red blood cells (Homo sapiens, UniProt P68871+P69905); assay: Oxygen equilibrium curves of fresh human red cell suspensions (p50); format: cell-based; details: presence of DIDS
Procedure: Human blood was collected on heparin from healthy nonsmoking donors. Bovine blood was provided by Pr Delpech, INA (Paris-Grignon). Red blood cells were washed three times in isotonic buffer, kept at 4° C., and used within 24 h after sampling. Hemoglobin Yakima, a high-oxygen-affinity variant [α2 β2 99 (G1) Asp>>His], was obtained from a known heterozygous carrier. Fresh Yakima red cells were processed in the same way as described above.
L3,5 and L3,4,5 were provided by Dr. Lalezari (Montefiore Hospital, New York); RSR-4 [2-[4-[[(3,5-dichloroanilino)carbonyl]methyl]phenoxy]-2-methylpropionic acid]and RSR13 [2-4-[[(3,5- dimethylanilino)carbonyl]methyl]phenoxy]-2-methylpropionic acid] have been synthesized following the procedure described in Randad et al. (J. Med. Chem. 34,752 (1991)). Human serum albumin (HSA), bovine serum albumin (BSA) and 4,4'diisothiocyanatostilbene-2,2'-disulfonate (DIDS) were purchased from Sigma (St. Louis, Mo.). Due to their low solubility in aqueous buffer, 10 mM stock solutions of the compounds were prepared in a slight exccess of sodium bicarbonate and back-titrated to pH 7.4. For example, RSR-4 or RSR-13 was dissolved at 60° C. in a 140 mM NaCl and 50 mM bis-Tris buffer at room temperature upon progressive addition of NaHCO3 to obtain 10 mM stock solutions. The pH was carefully adjusted to 7.4 after complete solubilization and before use of the solutions. Fresh solutions were prepared each week. Stock solutions of DIDS (1 mM) were prepared, in the dark, on the day of the experiments in a pH 7.4 buffer. Human serum albumin (defatted HSA) and bovine serum albumin (BSA) were prepared freshly as 1 mM stock solutions, pH 7.4. Equilibrium Measurements. The allosteric modulation of the effectors on freshly prepared solutions of hemoglobin or red cell suspensions was measured by the change in p50, the partial pressure of oxygen for half-saturation. Oxygen equilibrium curves (OEC) were carried out with the Hemox analyzer (TCS, Southampton, Pa.) under the following conditions: pH 7.4, 140 mM NaCl and 50 mM bis-Tris buffer at 37° C. In all experiments, the concentration of hemoglobin in the red cell suspensions was 20-25 μM hemoglobin tetramer (Hb4) as measured by Drabkin's method (cyanomethemoglobin) at the end of each recording. The final concentration of the allosteric effector in the cuvette was 0.5 mM, resulting in an effector/Hb4 ratio of 20 in the absence of albumin. OEC were also made in the same buffer containing 12.5, 25, 50, and 100 μM HSA (for human red cell suspensions) or BSA (for bovine cell suspensions). The serum albumin experiments were carried out with traces of an antifoaming agent. This agent has no deleterious effect on the red cell suspensions. The molar ratio of albumin to tetrameric hemoglobin was varied from 0.5 (at 12.5 μM HSA) to 4 (at 100 μM HSA); in whole blood this ratio is approximately 0.3 (0.7 mM albumin plus plasma proteins/2.25 mM Hb4). Therefore, the concentration of albumin used in the present studies was always larger relative to tetrameric hemoglobin than that found in whole blood.
Equilibrium oxygen binding curves were also recorded for red cell suspensions (10% hematocrit) that had been reacted for 30 min in the dark at 37° C. with 20 μM DIDS, a specific inhibitor of the red cell membrane anion channel. Kinetic Experiments. The kinetics of the interaction between the effectors and intracellular hemoglobin were measured in the absence and presence of varying concentrations of HSA. The red cell suspensions were equilibrated under room air (pO2 =140 mmHg) at 37° C. in the optical cuvette of the Hemox analyzer, which provides a constant stirring of the suspensions. […] Changes in absorbance were recorded and stored on tape for further analyses. […]

[4] = target: T1, deoxyhemoglobin (Homo sapiens, UniProt P68871+P69905); assay: X-ray crystallographic studies with deoxyhemoglobin; format: binding; details: near Arg 104β
Procedure: X-ray Crystallographic Studies. Hemoglobin for the crystal studies was prepared from human blood, and T-state deoxy crystals were obtained from ammonium sulfate solutions. RSR-4 or RSR-13 (2 effectors/I Hb) was dissolved in a slight excess of sodium bicarbonate to facilitate dissolution and was added to a 6 g % solution of deoxy-Hb in the glove box. A 1 g % Hb RSR-4 or RSR-13 solution was added to each crystallization tube. Crystals grew in approximately 1 week. X-ray data were collected with Friedel pairs using ω scans on a Rigaku AFC5R diffractometer equipped with a rotating anode and a 60-cm long evacuated beam tunnel. The crystals with allosteric effectors were isomorphous with native deoxy-Hb: RSR-4, 63.2, 83.7, and 53.8 Å, 99.4°; RSR-13, 63.2, 83.6, and 53.7 Å, 99.5°. Data collection (RSR-4 to 2.4-Å and RSR-13 to 2.8-Å resolution) was controlled by TEXAN software from Molecular Structure Corp. (The Woodlands, Tex.). There was little radiation damage to crystals, and new crystals were mounted when standard reference reflection intensities fell by 10%. All data were corrected for radiation damage when appropriate. The R-factors for the Friedel pairs and derivatives vs. native were as follows: RSR-4 (2.4 Å), 14.6% and 18.9%, and RSR-13 (2.8 Å), 7.2% and 12.5%, respectively. The difference electron density maps were obtained using the Cambridge computer programs (CCP4). […] The allosteric effector molecules were well resolved and easily fit to the difference density.

[5] = tested on: bovine red cells; assay: Hemolysis of bovine red cells in vitro; format: cell-based
[6] = tested on: human red cells; assay: Hemolysis of human red cells in vitro; format: cell-based
[7] = target: T1, deoxyhemoglobin; details: X-ray, literature; cited from earlier work
[8] = tested on: hemoglobin; details: hemoglobin solutions, fresh intact red cells; cited from earlier work
[9] = cited from earlier work

SMILES	state of purified Hb Yakima in the presence of effector [1]	allosteric effector strength [2]	second symmetry-related pair of binding sites [4]	binding site in deoxyhemoglobin (prior art, words) [7]	lowering of oxygen affinity / allosteric potency (prior art, words) [8]	also measured
O=C(O)C(COP(=O)(O)O)OP(=O)(O)O (stereo not shown) [DPG, 2,3-diphospho-glyceric acid]	remains locked in the high-affinity R-state	–	–	–	–	–
CC(C)(Oc1ccc(NC(=O)Nc2cc(Cl)c(Cl)c(Cl)c2)cc1)C(=O)O [L3,4,5, reference compound]	remains locked in the high-affinity R-state	much stronger allosteric effect	have a second symmetry-related pair of binding sites near Arg 104β	–	–	effect of DIDS (anion channel inhibitor) on the effect of the compounds [3]: does not inhibit the effects of the compounds
Cc1cc(C)cc(NC(=O)Cc2ccc(OC(C)(C)C(=O)O)cc2)c1 [RSR-3]	–	–	–	–	–	hemolysis [5]: No hemolysis; hemolysis [6]: No hemolysis
CC(C)(Oc1ccc(Cl)cc1)C(=O)O [clofibric acid]	–	only a relatively small effect in terms of lowering the oxygen affinity of hemoglobin	–	bind to the same sites in the central water cavity of deoxyhemoglobin	lowered the oxygen affinity of hemoglobin solutions	–
CC(C)(Oc1ccc(CCNC(=O)c2ccc(Cl)cc2)cc1)C(=O)O [bezafibrate]	–	weakest effector; also recorded: much stronger allosteric effect	–	bind to the same sites in the central water cavity of deoxyhemoglobin	much more effective in lowering the oxygen affinity of hemoglobin solutions and suspensions of fresh, intact red cells	inhibition of effect by serum albumin (prior art, words) [9]: significantly inhibited by serum albumin
CC(C)(Oc1ccc(CNC(=O)c2ccc(Cl)cc2)cc1)C(=O)O [MM-25]	–	somewhat stronger than bezafibrate	have a second symmetry-related pair of binding sites near Arg 104β	–	–	–
